Test results from ChEMBL document CHEMBL4364264, “Tetrazole hybrids with potential anticancer activity” (Eur J Med Chem, 2019).
Values after ≈ are worked out from the molar mass of the structure shown.

How the values were obtained:
PC-3 [1] = assay: Cytotoxicity against human PC3 cells; format: functional, cell-based
HCT-116 [2] = assay: Cytotoxicity against human HCT116 cells; format: functional, cell-based
SK-BR-3 = assay: Cytotoxicity against human SKBR3 cells; format: functional, cell-based
MCF7 [3] = assay: Cytotoxicity against human MCF7 cells; format: functional, cell-based
Caco-2 = assay: Cytotoxicity against human Caco2 cells; format: functional, cell-based
HeLa [4] = assay: Cytotoxicity against human HeLa cells; format: functional, cell-based
MDA-MB-231 [5] = assay: Cytotoxicity against human MDA-MB-231 cells; format: functional
SiHa = assay: Cytotoxicity against human SiHa cells; format: functional
PANC-1 = assay: Cytotoxicity against human PANC1 cells; format: functional
DU-145 = assay: Growth inhibition of human DU145 cells by microtiter plate assay; format: functional
MCF7 [6] = assay: Growth inhibition of human MCF7 cells by microtiter plate assay; format: functional
MDA-MB-231 [7] = assay: Growth inhibition of human MDA-MB-231 cells by microtiter plate assay; format: functional
PC-3 [8] = assay: cells; details: Homo sapiens, PC-3, 48 h
HT-29 = assay: cells; details: Homo sapiens, HT-29, 48 h
Description: Antiproliferative activity against human HT-29 cells after 48 hrs by MTT assay

HepG2 [9] = assay: Cytotoxicity against human HepG2 cells after 96 hrs by MTT assay; format: functional, cell-based; details: HepG2, 96 h
HCT-116 [10] = assay: Cytotoxicity against human HCT116 cells after 96 hrs by MTT assay; format: functional, cell-based; details: HCT-116, 96 h
HepG2 [11] = assay: Growth inhibition of human HepG2 cells; format: functional
HeLa [12] = assay: Growth inhibition of human HeLa cells; format: functional
MCF7 [13] = assay: Growth inhibition of human MCF7 cells; format: functional

O=C(/C=C/c1ccccc1Oc1nnnn1-c1ccccc1)c1ccccc1
IC50 (PC-3 [1]): 1.6 µg/mL (≈ 4.34 µM) | IC50 (HCT-116 [2]): 0.6 µg/mL (≈ 1.63 µM)

COc1ccccc1C1C(c2nnn[nH]2)=C(N)Oc2ccc3ccccc3c21 (stereo not given)
IC50 (SK-BR-3): 15 to 87 µM | IC50 (MCF7 [3]): 15 to 87 µM | IC50 (Caco-2): 15 to 87 µM | IC50 (HeLa [4]): 15 to 87 µM

CCn1cc(C(=O)O)c(=O)c2cnc(N3CCN(C(=O)CCSc4nnnn4-c4ccc(Br)cc4)CC3)nc21
GI50 (MDA-MB-231 [5]): 0.22 µM | GI50 (SiHa): 0.08 µM | GI50 (PANC-1): 0.07 µM

CCc1cc2c(cc1O)CC[C@@H]1[C@@H]2CC[C@]2(C)[C@@H](Cc3nnnn3C)CC[C@@H]12
GI50 (DU-145): 0.34 to 100 µM | GI50 (MCF7 [6]): 0.34 to 100 µM | GI50 (MDA-MB-231 [7]): 0.34 to 100 µM

COc1ccc(C2C(c3nnn[nH]3)=C(N)Oc3ccc4ccccc4c32)cc1 (stereo not given)
IC50 (SK-BR-3): 15 to 87 µM | IC50 (MCF7 [3]): 15 to 87 µM | IC50 (Caco-2): 15 to 87 µM | IC50 (HeLa [4]): 15 to 87 µM

O=C(O)Cn1nnc(-c2cn(-c3ccccc3)nc2-c2ccccc2)n1
IC50 (PC-3 [8]): 70.2 µM | IC50 (HT-29): 86.3 µM

COc1cc(-n2nnnc2SCCC(=O)N2CCN(c3cc4c(cc3F)c(=O)c(C(=O)O)cn4C3CC3)CC2)cc(OC)c1OC
GI50 (MDA-MB-231 [5]): 0.066 to 1.3 µM | GI50 (SiHa): 0.066 to 1.3 µM | GI50 (PANC-1): 0.066 to 1.3 µM

COc1cc(/C=C/C(=O)c2ccccc2OC)ccc1Oc1nnnn1-c1ccccc1
IC50 (PC-3 [1]): 2.5 to 7 µg/mL (≈ 5.84 to 16.3 µM) | IC50 (HCT-116 [2]): 2.5 to 7 µg/mL (≈ 5.84 to 16.3 µM)

COc1cc(/C=C/C(=O)c2ccc(Br)cc2)ccc1Oc1nnnn1-c1ccccc1
IC50 (PC-3 [1]): 2.5 to 7 µg/mL (≈ 5.24 to 14.7 µM) | IC50 (HCT-116 [2]): 2.5 to 7 µg/mL (≈ 5.24 to 14.7 µM)

O=C(O)c1cn(C2CC2)c2cc(N3CCN(C(=O)CCSc4nnnn4-c4ccc(F)c(F)c4F)CC3)c(F)cc2c1=O
GI50 (MDA-MB-231 [5]): 0.066 to 1.3 µM | GI50 (SiHa): 0.066 to 1.3 µM | GI50 (PANC-1): 0.066 to 1.3 µM

CC[C@H](CC[C@@H](C)[C@H]1CC[C@H]2[C@H]3[C@H](CC[C@]12C)[C@@]1(C)CCCCC1=Cc1nnnn13)C(C)C
IC50 (HepG2 [9]): 4.82 µM | IC50 (HCT-116 [10]): 4.58 µM

CN(C)C(=O)NC(c1ccc(Cl)cc1)n1cnnn1 (stereo not given)
GI50 (HepG2 [11]): 8.2 to 41 µM | GI50 (HeLa [12]): 8.2 to 41 µM | GI50 (MCF7 [13]): 8.2 to 41 µM

Cc1ccc(-c2nn(-c3ccccc3)cc2-c2nnn(CC(=O)O)n2)cc1
IC50 (PC-3 [8]): 7.23 to 48.3 µM | IC50 (HT-29): 7.23 to 48.3 µM

COc1ccc(C2C(c3nnn[nH]3)=C(N)Oc3ccc4ccccc4c32)c(OC)c1 (stereo not given)
IC50 (SK-BR-3): 15 to 26 µM | IC50 (MCF7 [3]): 15 to 26 µM | IC50 (Caco-2): 15 to 26 µM | IC50 (HeLa [4]): 15 to 26 µM

COc1cccc(C2C(c3nnn[nH]3)=C(N)Oc3ccc4ccccc4c32)c1OC (stereo not given)
IC50 (SK-BR-3): 15 to 87 µM | IC50 (MCF7 [3]): 15 to 87 µM | IC50 (Caco-2): 15 to 87 µM | IC50 (HeLa [4]): 15 to 87 µM

NC(=S)NNC(c1ccc(Cl)cc1)n1cnnn1 (stereo not given)
GI50 (HepG2 [11]): 5.2 to 29.8 µM | GI50 (HeLa [12]): 5.2 to 29.8 µM | GI50 (MCF7 [13]): 5.2 to 29.8 µM

CCn1cc(C(=O)O)c(=O)c2cnc(N3CCN(C(=O)CCSc4nnnn4-c4ccc(F)c(F)c4F)CC3)nc21
GI50 (MDA-MB-231 [5]): 0.066 to 1.3 µM | GI50 (SiHa): 0.066 to 1.3 µM | GI50 (PANC-1): 0.066 to 1.3 µM

O=C(O)c1cn(C2CC2)c2cc(N3CCN(C(=O)CCSc4nnnn4Cc4ccccc4)CC3)c(F)cc2c1=O
GI50 (MDA-MB-231 [5]): 0.085 to 1.15 µM | GI50 (SiHa): 0.085 to 1.15 µM | GI50 (PANC-1): 0.085 to 1.15 µM

NC(=S)NNC(c1ccccc1)n1cnnn1 (stereo not given)
GI50 (HepG2 [11]): 5.2 to 8.1 µM | GI50 (HeLa [12]): 5.2 to 8.1 µM | GI50 (MCF7 [13]): 5.2 to 8.1 µM

COc1ccccc1-c1nn(-c2ccccc2)cc1-c1nnn(CC(=O)O)n1
IC50 (PC-3 [8]): 7.23 to 48.3 µM | IC50 (HT-29): 7.23 to 48.3 µM

O=C(O)c1cn(C2CC2)c2cc(N3CCN(C(=O)CCSc4nnnn4-c4ccc(C(F)(F)F)cc4)CC3)c(F)cc2c1=O
GI50 (MDA-MB-231 [5]): 0.066 to 1.3 µM | GI50 (SiHa): 0.066 to 1.3 µM | GI50 (PANC-1): 0.066 to 1.3 µM

COc1cc(/C=C/C(=O)c2cccs2)ccc1Oc1nnnn1-c1ccccc1
IC50 (PC-3 [1]): 5 µg/mL (≈ 12.4 µM) | IC50 (MCF7 [3]): 2.9 µg/mL | IC50 (HCT-116 [2]): 2.5 µg/mL (≈ 6.18 µM)

COc1cc(/C=C/C(=O)c2ccco2)ccc1Oc1nnnn1-c1ccccc1
IC50 (PC-3 [1]): 2.5 to 7 µg/mL (≈ 6.44 to 18 µM) | IC50 (HCT-116 [2]): 2.5 to 7 µg/mL (≈ 6.44 to 18 µM)

O=C(O)c1cn(C2CC2)c2cc(N3CCN(C(=O)CCSc4nnnn4-c4ccccc4)CC3)c(F)cc2c1=O
GI50 (MDA-MB-231 [5]): 0.085 to 1.15 µM | GI50 (SiHa): 0.085 to 1.15 µM | GI50 (PANC-1): 0.085 to 1.15 µM

CCn1cc(C(=O)O)c(=O)c2cnc(N3CCN(C(=O)CCSc4nnnn4-c4ccc(OC)c(OC)c4OC)CC3)nc21
GI50 (MDA-MB-231 [5]): 0.066 to 1.3 µM | GI50 (SiHa): 0.066 to 1.3 µM | GI50 (PANC-1): 0.066 to 1.3 µM

NC1=C(c2nnn[nH]2)C(c2cccc(O)c2)c2c(ccc3ccccc23)O1 (stereo not given)
IC50 (SK-BR-3): 15 to 87 µM | IC50 (MCF7 [3]): 15 to 87 µM | IC50 (Caco-2): 15 to 87 µM | IC50 (HeLa [4]): 15 to 87 µM
